Assay results published in patent US20180193294A1, “Dehydroabietic acid (DHAA) derivatives for use as ion channel openers” (priority 2015, published 2018).

Target: 3R Shaker K channel (Drosophila melanogaster, UniProt P08510, A359R/M356R)
Assay: physchem
Assay type: cell-based
Settings: 100 μM; for compound-induced G(V) shift (mean±SEM) / G(V) shift: pH 7.4, Xenopus oocytes; for ΔG(V) of representative G(V) curves (single examples): pH 7.4, same cells as representative traces; for relative current amplitude: representative traces at voltage giving 10% of maximum conductance in control; for relative current amplitude / effect on G(V) shift / current compared with DHAA / increase in G(V) shift relative to DHAA (ΔVc7, ΔVhalo, ΔVtot): pH 7.4; for effect on G(V) shift / current compared with DHAA: C7-modified DHAA; for G(V) shift: Table 1
From the text: A 3R Shaker K channel is a modified Shaker K channel where residues 356 and 359 are mutated to arginines.
All animal experiments were approved by the local Animal Care and Use Committee and followed international guidelines. A modified Shaker H4 channel^30, with removed N-type inactivation (ShH4IR)^31, here called the wild type (WT) channel, was expressed in oocytes. In addition, a modified 3R Shaker K channel where two introduced positive charged arginines (M356R and A359R) in addition to one native arginine (R362) makes the channel more sensitive to DHA^16, was expressed in oocytes and in a CHO—K1 stable cell line.
African clawed frogs (Xenopus laevis) were anesthetized with 1.4 g/L ethyl 3-aminobenzoate methanesulfonate salt (tricaine). After an incision through the abdomen a batch of oocytes were removed. Clusters of oocytes were separated by incubation for ˜1 h in a Ca-free O—R2 solution (in mM: 82.5 NaCl, 2 KCl, 5 HEPES, and 1 MgCl2; pH adjusted to 7.4 by NaOH) containing Liberase Blendzyme. The oocytes were then incubated at 8° C. in a modified Barth's solution (MBS; in mM: 88 NaCl, 1 KCl, 2.4 NaHCO3, 15 HEPES, 0.33 Ca(NO3)2, 0.41 CaCl2, and 0.82 MgSO4; pH adjusted to 7.6 by NaOH) supplemented with penicillin (25 U/ml), streptomycin (25 μg/ml), and sodium pyruvate (2.5 mM) 2-24 hours before injection. Fifty nl of cRNA (50 pg) were injected into each oocyte using a Nanoject injector (Drummond Scientific, Broomall, Pa.). Injected oocytes were kept at 8° C. in MBS until one day before electrophysiological recordings, when they were incubated at 16° C. All chemicals were supplied from Sigma-Aldrich (Stockholm, Sweden) if not stated otherwise.
All manual electrophysiological recordings were performed at room temperature (20-23° C.), using a GeneClamp 500B amplifier (for oocytes) or a Axopatch 200B amplifier (for manual patch clamp of CHO—K1 cells and DRG neurons) and a Digidata 1440A digitizer and pClamp 10 software (all from Molecular Devices, Inc., Sunnyvale, Calif., USA). Compounds were dissolved to 100 mM in 99.5% EtOH and stored at −20° C. Compounds were diluted in extracellular solution to the desired test concentration.
The oocyte was placed in a bath surrounded by 1K extracellular solution that contained (in mM): 88 NaCl, 1 KCl, 15 HEPES, 0.4 CaCl2, and 0.8 MgCl2, pH adjusted to 7.4 by NaOH (reaching a sodium concentration of ˜100 mM). Control solution was added to the bath with a gravity driven perfusion system. Compound solution was added to the bath manually with a syringe. Two glass microelectrodes were inserted into the oocyte using micromanipulators. […] All channels were closed when the potential was clamped to −80 mV and this voltage was set as the holding potential. Currents were evoked from the holding potential of −80 mV by 100-ms long, 5-mV steps ranging from −80 up to +50 mV (WT) and +70 mV (3R).
Conductance GK(V) was calculated as GK(V)=[…], (Eq. 1) where IK is the average current from the steady-state phase at the end of each 100-ms pulse, V is the membrane voltage, and Vrev is the reversal potential for K^+, (set to −80 mV for the oocytes, and calculated to be −89 mV for the CHO—K1 cells).
G(V)=A/(1+exp((V1/2−V)/s))^n (Eq. 2) where A is amplitude of the curve, V is the absolute membrane voltage, V1/2 is the midpoint, s is the slope and n is an exponent set to 4^17. The compound-induced G(V) shift was determined at the 10% level of the maximum conductance in control solution^17. The compound-induced G(V) shift in CHO—K1 was quantified by subtracting the control V1/2 from the compound V1/2 when n was set to 1.
Data for concentration and pH dependent G(V) shifts (ΔV) in oocytes were fit with a dose-response equation ΔV=ΔVmax/(1+c1/2/c), (Eq. 3) where Δvmax is the maximal shift, c1/2 is half maximal effective concentration/pKa value and c is the concentration.

Sequence of 3R Shaker K channel (P08510 whole entry M356R/A359R): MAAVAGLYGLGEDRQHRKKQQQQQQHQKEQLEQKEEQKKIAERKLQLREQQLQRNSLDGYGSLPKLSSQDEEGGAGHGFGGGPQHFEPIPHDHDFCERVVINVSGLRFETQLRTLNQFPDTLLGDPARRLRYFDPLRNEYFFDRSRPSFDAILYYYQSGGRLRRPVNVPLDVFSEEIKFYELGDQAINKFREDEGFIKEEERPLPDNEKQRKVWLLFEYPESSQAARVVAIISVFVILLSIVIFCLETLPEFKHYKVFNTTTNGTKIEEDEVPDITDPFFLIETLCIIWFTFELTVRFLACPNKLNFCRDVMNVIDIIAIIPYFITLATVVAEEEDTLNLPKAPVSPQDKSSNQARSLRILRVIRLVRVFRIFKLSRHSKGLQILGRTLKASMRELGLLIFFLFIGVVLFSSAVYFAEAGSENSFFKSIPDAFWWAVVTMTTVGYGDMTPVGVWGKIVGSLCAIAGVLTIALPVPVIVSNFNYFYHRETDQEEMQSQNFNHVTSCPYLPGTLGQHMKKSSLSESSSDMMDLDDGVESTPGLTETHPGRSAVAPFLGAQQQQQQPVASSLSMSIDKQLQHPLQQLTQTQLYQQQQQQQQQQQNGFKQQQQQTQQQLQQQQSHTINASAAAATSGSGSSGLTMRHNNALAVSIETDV

Row | SMILES | G(V) shift | other results
1 | CC(C)C1=CC2=CC[C@@H]3[C@](C)(CCC[C@@]3(C)C(=O)O)[C@H]2CC1 [AA, abietic acid] | – | compound-induced G(V) shift (mean±SEM): −11.2±2 mV; ΔG(V) of representative G(V) curves (single examples): −8.1 mV; relative current amplitude: 2.2 times
2 | CC(C)c1ccc2c(c1)C(=NOCc1ccccc1)CC1C(C)(C(=O)O)CCCC21C (centres unmarked) [Compound K9] | −9.5 mV | effect on G(V) shift / current compared with DHAA: no significantly different effects compared to DHAA
3 | CC(C)c1ccc2c(c1)C(=NOCCCc1ccccc1)CC1C(C)(C(=O)O)CCCC21C (centres unmarked) [Compound K10] | −3.0 mV | effect on G(V) shift / current compared with DHAA: decreased potency compared to DHAA
4 | CC(C)c1ccc2c(c1Cl)CCC1[C@](C)(C(=O)O)CCC[C@]21C (stereo partly drawn) [Wu14, (1R,4aS)-8-chloro-7-isopropyl-1,4a-dimethyl-1,2,3,4,4a,9,10,10a-octahydrophenanthrene-1-carboxylic acid] | −17.5 mV | –
5 | CC(C)c1ccc2c(c1Cl)C(=O)CC1[C@](C)(C(=O)O)CCC[C@]21C (some centres unmarked) [Wu15] | −4.9 mV | –
6 | CO/N=C1\CC2[C@](C)(C(=O)O)CCC[C@]2(C)c2ccc(C(C)C)c(Cl)c21 (stereo partly drawn) [Wu16, (1R,4aS,E)-8-chloro-7-isopropyl-9-methoxyimino-1,4a-dimethyl-1,2,3,4,4a,9,10,10a-octahydrophenanthrene-1-carboxylic acid] | −17.2 mV | –
7 | CC(C)c1ccc2c(c1Cl)C(=NO)CC1C(C)(C(=O)O)CCCC21C (centres unmarked) [Wu17] | −5.3 mV | –
8 | CC(C)c1ccc2c(c1Cl)C(=NOCc1ccccc1)CC1C(C)(C(=O)O)CCCC21C (centres unmarked) [Wu18] | −1.3 mV | –
9 | C=CCO/N=C1\CC2[C@](C)(C(=O)O)CCC[C@]2(C)c2ccc(C(C)C)c(Cl)c21 (stereo partly drawn) [Wu19, (1R,4aS,E)-9-((allyloxy)imino)-8-chloro-7-isopropyl-1,4a-dimethyl-1,2,3,4,4a,9,10,10a-octahydrophenanthrene-1-carboxylic acid] | −16.1 mV | –
10 | CC(C)c1cc2c(cc1Cl)[C@@]1(C)CCC[C@@](C)(C(=O)O)C1CC2=O (stereo partly drawn) [Wu20, (1R,4aS,E)-6-chloro-7-isopropyl-9-oxo-1,4a-dimethyl-1,2,3,4,4a,9,10,10a-octahydrophenanthrene-1-carboxylic acid] | −13.9 mV | –
11 | CC(C)c1cc2c(cc1Cl)[C@@]1(C)CCC[C@@](C)(C(=O)O)C1C/C2=N\O (stereo partly drawn) [Wu21, (1R,4aS,E)-6-chloro-7-isopropyl-9-hydroxyimino-1,4a-dimethyl-1,2,3,4,4a,9,10,10a-octahydrophenanthrene-1-carboxylic acid] | −13.8 mV | –
12 | CC(C)c1cc2c(cc1Cl)C1(C)CCCC(C)(C(=O)O)C1CC2=NOCc1ccccc1 (centres unmarked) [Wu22] | −9.1 mV | –
13 | CC(C)c1cc2c(cc1Br)[C@@]1(C)CCC[C@@](C)(C(=O)O)C1CC2 (stereo partly drawn) [Wu24, (1R,4aS,E)-6-bromo-7-isopropyl-1,4a-dimethyl-1,2,3,4,4a,9,10,10a-octahydrophenanthrene-1-carboxylic acid] | −12.5 mV | increase in G(V) shift relative to DHAA (ΔVc7, ΔVhalo, ΔVtot): −0.3 mV; compound-induced G(V) shift (mean±SEM): −12.4 mV
14 | CC(C)c1c(Cl)cc2c(c1Cl)CC[C@H]1[C@](C)(C(=O)O)CCC[C@]21C [Wu27] | −5.9 mV | compound-induced G(V) shift (mean±SEM): −5.9±0.4 mV; ΔG(V) of representative G(V) curves (single examples): −6.1 mV
15 | CC(C)c1cc2c(cc1Br)[C@@]1(C)CCC[C@@](C)(C(=O)O)C1C/C2=N\O (stereo partly drawn) [Wu28, (1R,4aS,E)-6-bromo-9-(hydroxyimino)-7-isopropyl-1,4a-dimethyl-1,2,3,4,4a,9,10,10a-octahydrophenanthrene-1-carboxylic acid] | −12.4 mV | –
16 | CC(C)c1cc2c(cc1Br)C1(C)CCCC(C)(C(=O)O)C1CC2=O (centres unmarked) [Wu30] | −7.0 mV | –
17 | CC(C)c1ccc2c(c1)C(=NO)CC1C(C)(C(=O)O)CCCC21C (centres unmarked) [Wu31] | −3.0 mV | effect on G(V) shift / current compared with DHAA: clearly reduced the current increase
18 | C=CCO/N=C1\CC2[C@](C)(C(=O)O)CCC[C@]2(C)c2cc(Br)c(C(C)C)cc21 (stereo partly drawn) [Wu33, (1R,4aS,E)-6-bromo-9-((allyloxy)imino)-7-isopropyl-1,4a-dimethyl-1,2,3,4,4a,9,10,10a-octahydrophenanthrene-1-carboxylic acid] | −24.5 mV | –

Row | SMILES | G(V) shift | other results
19 | CC(C)c1cc2c(cc1Br)C1(C)CCCC(C)(C(=O)O)C1CC2=NOCc1ccccc1 (centres unmarked) [Wu34] | −6.6 mV | –
20 | CON=C1C[C@H]2[C@](C)(C(=O)O)CCC[C@]2(C)c2ccc(C(C)C)cc21 [Wu36] | −14.8 mV | increase in G(V) shift relative to DHAA (ΔVc7, ΔVhalo, ΔVtot): −2.7 mV; compound-induced G(V) shift (mean±SEM): −14.8 mV; effect on G(V) shift / current compared with DHAA: no significantly different effects compared to DHAA; relative current amplitude: 4.4 times
21 | CC(C)c1c(Cl)cc2c(c1Cl)C(=O)CC1C(C)(C(=O)O)CCCC21C (centres unmarked) [Wu37] | −11.1 mV | –
22 | COC1CC2[C@](C)(C(=O)O)CCC[C@]2(C)c2ccc(C(C)C)cc21 (some centres unmarked) [Wu39] | −7.3 mV | effect on G(V) shift / current compared with DHAA: clearly reduced the current increase; relative current amplitude: 2.6 times
23 | C=CCON=C1CC2C(C)(C(=O)O)CCCC2(C)c2cc(Cl)c(C(C)C)c(Cl)c21 (centres unmarked) [Wu40] | −13.4 mV | –
24 | CON=C1C[C@H]2[C@](C)(C(=O)O)CCC[C@]2(C)c2cc(Cl)c(C(C)C)c(Cl)c21 [Wu41, (1R,4aS,10aR)-6,8-dichloro-7-isopropyl-9-(methoxyimino)-1,4a-dimethyl-1,2,3,4,4a,9,10,10a-octahydrophenanthrene-1-carboxylic acid] | −22.1 mV | –
25 | CC(C)c1c(Cl)cc2c(c1Cl)C(=NO)CC1C(C)(C(=O)O)CCCC21C (centres unmarked) [Wu42] | −6.1 mV | –
26 | CC(C)c1c(Cl)cc2c(c1Cl)C(=NOCc1ccccc1)CC1C(C)(C(=O)O)CCCC21C (centres unmarked) [Wu43] | −4.2 mV | –
27 | CC(C)c1c(Cl)c(Cl)c2c(c1Cl)CCC1C(C)(C(=O)O)CCCC21C (centres unmarked) [Wu45] | −3.9 mV | –
28 | CC(C)c1c(Cl)c(Cl)c2c(c1Cl)C(=O)CC1[C@](C)(C(=O)O)CCC[C@]21C (some centres unmarked) [Wu46] | −2.5 mV | –
29 | CON=C1CC2C(C)(C(=O)O)CCCC2(C)c2c(Cl)c(Cl)c(C(C)C)c(Cl)c21 (centres unmarked) [Wu47] | −13.4 mV | –
30 | CC(C)c1c(Cl)c(Cl)c2c(c1Cl)C(=NO)CC1C(C)(C(=O)O)CCCC21C (centres unmarked) [Wu48] | 4.7 mV | –
31 | C=CCON=C1CC2C(C)(C(=O)O)CCCC2(C)c2c(Cl)c(Cl)c(C(C)C)c(Cl)c21 (centres unmarked) [Wu49] | −7.3 mV | –
32 | CC(C)c1c(Cl)c(Cl)c2c(c1Cl)C(=NOCc1ccccc1)CC1C(C)(C(=O)O)CCCC21C (centres unmarked) [Wu51] | −1.9 mV | –
33 | C=CCO/N=C1\CC2[C@](C)(C(=O)O)CCC[C@]2(C)c2cc(F)c(C(C)C)cc21 (stereo partly drawn) [Wu52, (1R,4aS,E)-9-((allyloxy)imino)-6-fluoro-7-isopropyl-1,4a-dimethyl-1,2,3,4,4a,9,10,10a-octahydrophenanthrene-1-carboxylic acid] | −20.2 mV | –
34 | C=CCON=C1CC2C(C)(C(=O)O)CCCC2(C)c2ccc(C(C)C)c(F)c21 (centres unmarked) [Wu53] | −9.2 mV | –
35 | CON=C1CC2C(C)(C(=O)O)CCCC2(C)c2ccc(C(C)C)c(F)c21 (centres unmarked) [Wu54] | −9.0 mV | –
